Consider 1 substance from patent US8395037B2, “Pharmaceutical compositions for treating/preventing motor organ diseases” (Mitsubishi Corporation, priority 2005, dated 2013).

For data set [1], the system named is osteoarthritis model rabbits.
Description: Osteoarthritis animal model was prepared according to a general method. NZW-strain male rabbits (2 to 2.5 kg, purchased from Kitayama Labes Co.) were habituated for about one week, and both knee joint sites were shaved and disinfected with an iodine antiseptic agent under anesthesia with a combined administration of ketamine hydrochloride and xylazine (intramuscular administration, or intravenous administration if the anesthetic effect was low). The epidermis inside the knee joints was incised to expose the anterior cruciate ligament and medial collateral ligament, which were then cut out. After confirming and incising the articular capsule, the medial meniscus was exposed and totally extracted. Tissues around the articular capsule, patellar tendon, and epidermis were sutured thereafter. At the time of suturing, the operated site was washed with a physiological salt solution containing an antibiotic (injectable Viccillin, Meiji Seika) (500 mg (titer) as ampicillin sodium/20.0 ml of physiological saline solution).
From the postoperative first week, 2.0 ml of a hydroxylated C60 fullerene solution (100 μM, adjusted with the solvent polyethylene glycol) was injected into the right knee joint cavity, and 2.0 ml of solvent alone was injected into the left knee joint cavity, using a 23-gauge injection needle intraarticularly twice a week. […] Thickness of the degenerated cartilage layer and the number of chondrocytes in the degenerated cartilage layer were measured. The thickness of the degenerated cartilage layer was expressed as a relative value assuming that the immediate postoperative thickness (zeroth week) was 100%.
Moreover, proteoglycan content decrease in articular cartilage involved with cartilage degeneration was evaluated by safranin O staining. The evaluation result was expressed as an area ratio (%) to immediate postoperative proteoglycan-stained area.
The subject of data set [2] is MMP-1. Description: MMP-1 concentration in synovial fluid of osteoarthritis model knee joints (ELISA). The data set is classed as in vivo, rabbit. The conditions noted are these: various concentrations, sequential measurement, versus control knees. The protocol:
Sequential biochemical examinations of blood and synovial fluid were also performed (pre-administration and fourth- and eighth-week post-administration of water-solubilized fullerene). The observed biochemical examination items were (A) hepatic function (GOT and GPT), renal function (urea nitrogen and creatinine), and electrolytes (Na, K, and Cl), (B) extracellular matrix-degrading enzyme production ability (MMP-1, 3, and 13), and (C) cartilage matrix-synthesizing ability (proteoglycan). The items of (A) were measured by commercially available testing equipments and items of (B) and (C) were measured by ELISA method.
(An ELISA detects its analyte on a solid surface through an enzyme-linked reagent.)

Another data set relates to cultured chondrocytes. Description: Chondrocyte-proliferation ability under cartilage degenerating factors. The conditions noted are these: cultured chondrocytes treated with IL-1β and H2O2. The data set is classed as cell-based.
For a further data set, the system named is MMP-13. Description: MMP-13 production in cultured chondrocytes treated with cartilage degenerating factor (ELISA). The conditions noted are these: for Production of MMP-13: IL-1β or H2O2 treated chondrocytes, 50 or 100 μM, 24 h. The data set is classed as cell-based, human. The protocol:
(§1) Chondrocytes isolated from human articular cartilage tissues were used for cultured cells. After obtaining informed consent, cartilage tissues were collected from surgically-removed tissues from eight osteoarthritis patients. The collected tissues were sliced and then treated in a liquid low-glucose Dulbecco's modified Eagle's medium (DMEM, manufactured by Gibco Co.) containing 1.5 mg/ml collagenase B at 37° C. overnight, to isolate chondrocytes for culture. The cells were normally cultured in a culture flask (culture area: 25 cm^2), and in a polystyrene culture dish (diameter: 6 cm) for use in the experiments. […]
(§2) Influence of hydroxylated C60 fullerene on cartilage matrix-degrading enzyme production which is enhanced by cartilage catabolism inducers was analyzed using the enzyme-linked immunoassay (ELISA) method.
(§3) Chondrocytes that had been isolated and cultured by the above method (1) were subjected to two passage cultures. […] After a 24 hour incubation, the culture supernatant was collected, and the concentrations of cartilage matrix-degrading enzymes, matrix metalloprotease (MMP)-1, 3, and 13, were measured.
(§4) The concentrations of MMP-1, MMP-3, and MMP-13 in the culture supernatant were determined using ELISA kits (kits for MMP-1 and MMP-3, manufactured by R&D Co.; and a kit for MMP-13, manufactured by Amersham), which is the standard technique currently known in the art. […] 100 μl of 1.5 N H3PO4 was added to each well to stop the color reaction, and the absorbance at 450 nm was measured using a microtiter plate reader. According to the instructions provided by the manufacturer, the measured concentrations were calibrated using a lyophilized control reagent.

In data set [3] the test system is MMP-1. Description: MMP-1 production in cultured chondrocytes treated with cartilage degenerating factor (ELISA). The conditions noted are these: for Production of MMP-1: IL-1β or H2O2 treated chondrocytes, 50 or 100 μM, 24 h. In kind it is cell-based, human. The procedure:
as §1, §2, §3, §4

Data set [4] concerns osteoarthritis patient-derived chondrocytes. In words: Cytotoxicity test (XTT method) on chondrocytes. The conditions noted are these: for Cell survival rate (%): relative to control (medium alone) = 100%. The data set is classed as cell-based, human. The protocol:
Chondrocytes isolated from human articular cartilage tissues were used for cultured cells. After obtaining informed consent, cartilage tissues were collected from surgically-removed tissues from eight osteoarthritis patients. The collected tissues were sliced and then treated in a liquid low-glucose Dulbecco's modified Eagle's medium (DMEM, manufactured by Gibco Co.) containing 1.5 mg/ml collagenase B at 37° C. overnight, to isolate chondrocytes for culture. The cells were normally cultured in a culture flask (culture area: 25 cm^2), and in a polystyrene culture dish (diameter: 6 cm) for use in the experiments. The cell culture was performed using a DMEM medium added with inactivated fetal bovine serum (FBS, manufactured by TRACE Co.) at 10% volume of the medium, and also 2 mM L-glutamine, 25 mM HEPES, and penicillin and streptomycin at 100 units/ml, in either a CO2 incubator (normoxic condition) which was set at 5% CO2+95% air, or a low oxygen chamber (hypoxic condition) which was set at 1% O2+5% CO2+94% N2, at 37° C. under saturated humidity.
Influence of hydroxylated C60 fullerene on the survival rate of chondrocytes was evaluated by a cytotoxicity test (XTT method). Hydroxylated C60 fullerene (manufactured by Frontier Carbon Co.) was dissolved in polyethylene glycol to prepare a 10 mM stock, which was then stored in a dark place at −20° C. The concentration of hydroxylated C60 fullerene for the test was 1.0 μM, 10.0 μM, and 100.0 μM.
50 μl each of chondrocytes in the logarithmic growth phase were added into a 96-well microplate at the concentration of 5.0×10^5 cells/ml, and incubated in either a CO2 incubator (normoxic condition) or a low oxygen chamber (hypoxic condition) for 24 hours. Hydroxylated C60 fullerene was added into the 96-well microplate at each target concentration described above (final volume: 100 μl), and the cells were incubated for 48 hours or 96 hours. Then, the medium was replaced to remove hydroxylated C60 fullerene, and the cells were incubated for another 12 hours. To stain surviving cells, 50 μl XTT (2,3bis(2-methoxy-4-nitro-5-sulfophenyl)-5-[(phenylamino)carbonyl]-2H-tetrazolium hydroxide, inner salt) reagent was added to each well, and the cells were incubated for four hours. Immediately thereafter, the absorbance at 450 nm was measured with a plate reader and the cell survival rates were analyzed. The results are shown as survival rates. The survival rate of the control group in a medium alone without hydroxylated C60 fullerene was assumed to be 100%, and the survival rate of the hydroxylated C60 fullerene-administered groups is expressed as relative values against the control group.

Turning to hydroxylated C60 fullerene, the “Chondrocytes and cartilage matrix, histology” value in data set [1] (100 μM, 2.0 ml intraarticular twice a week, postoperative sixth and eighth week) is “histologically maintained”. Moreover, in data set [1] (100 μM, 2.0 ml intraarticular twice a week, versus solvent alone), the “Degeneration of the knee joint cartilage tissue” value is listed as “mild”. Further, the “Swelling/flare in articular local parts, influence on systemic condition” value in data set [1] (rabbit, in vivo) is recorded as “neither swelling/flare in articular local parts nor influence on systemic condition was observed”. Further, in the data set on MMP-1 [2], the “MMP-1 concentration in synovial fluid” value is listed as “MMP-1 production inhibitory effect was observed”. Besides, the “Decrease of chondrocyte-proliferation ability” value with cultured chondrocytes is on record as “inhibited decrease of chondrocyte-proliferation ability”. Moreover, the figures for the “Production of MMP-13” value in the data set with MMP-13 and in the data set on MMP-13 (listed as fullerene) were “inhibited in all cases” and “decreased the amount of MMP-13 produced”, respectively. The “Inhibitory effect on production of MMP-13” value in the data set with MMP-13 (hypoxic condition) is “also observed”. The “Production of MMP-1” value in the data set with MMP-1 [3] is “inhibited in all cases”; in the data set on MMP-1 [3] (listed as fullerene), “decreased the amount of MMP-1 produced”. Also, the “Inhibitory effect on production of MMP-1” value with MMP-1 [3] (hypoxic condition) is “also observed”. In addition, the “Cell survival rate (%)” value was determined as 98.5 ± 6.5% in data set [4] (1.0 μM, 48 hour incubation); 99.6 ± 3.8% in data set [4] (1.0 μM, 96 hour incubation); 101.3 ± 5.8% in data set [4] (10.0 μM, 48 hour incubation); 98.2 ± 2.6% in data set [4] (10.0 μM, 96 hour incubation); 99.5 ± 4.2% in data set [4] (100.0 μM, 48 hour incubation); 103.4 ± 2.2% in data set [4] (100.0 μM, 96 hour incubation). The Toxicity to chondrocytes result in data set [4] (1.0-100.0 μM, 48 or 96 hours) is “not to be toxic to chondrocytes”.
